# Experimental data reported in US4534971A, “Complexation of anthracycline and anthraquinone antibiotics by the apo riboflavin binding protein from eggs” (Regents of the University of Minnesota, priority 1982, dated 1985).
# “Also recorded” adds a separate entry of the source. Read-outs that look alike come from different tables or passages of the source.
# Experiments:
# [1] = molecular target: T1, apo riboflavin binding protein from eggs (Gallus gallus, UniProt P02752); experiment: Titration of antibiotic with egg riboflavin binding protein; dissociation constant; parameters: species or system chicken
# T1 construct: obtained in homogeneous form from chicken egg white; from tissue; host or cells: chicken egg white
# T1 sequence (P02752 18-238): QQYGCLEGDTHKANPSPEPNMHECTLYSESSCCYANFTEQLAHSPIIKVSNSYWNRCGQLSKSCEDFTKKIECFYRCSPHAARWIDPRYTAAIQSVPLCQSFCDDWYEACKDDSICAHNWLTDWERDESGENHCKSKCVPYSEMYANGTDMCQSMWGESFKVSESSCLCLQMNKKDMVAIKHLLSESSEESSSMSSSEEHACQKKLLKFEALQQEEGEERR
# Method: The purified protein may be stored, for example, frozen at -20° C. in 10 mM potassium phosphate, 1 mM EDTA pH 7.0 buffer, at concentrations between about 1 and 10 mM.
# A working solution of adriamycin was obtained by dissolution in warm 0.035M potassium phosphate pH 7.0 buffer containing 0.15M NaCl and 0.5 mM EDTA and cooled to ambient temperature (24±2° C.). To a 3.0 mL solution containing 3 μM adriamycin was added 5.0 μL increments of a 0.49 mM binding protein solution in 10 mM potassium phosphate, 1 mM EDTA pH 7.0 buffer.
# Daunomycin was dissolved in warm buffer, followed by cooling. […] AD-32 was dissolved in dimethylformamide.
# The binding protein affinity of three anthracyclinones was determined: (±)-aklavinone, 7-deoxydaunomycinone and iso-7-deoxydaunomycinone. Aklavinone and 7-deoxydaunomycinone were made as concentrated solutions in dimethylformamide, and the solution concentrations determined by dilution into alcohol. Leuco iso-7-deoxydaunomycinone was dissolved in dimethylformamide and diluted into buffer. The general procedure of Example 1 was followed.
# Solutions were prepared and admixed as previously described.
# [2] = molecular target: T1, apo riboflavin binding protein from eggs; experiment: Anaerobic dithionite redox titration of the daunomycin-binding protein complex; parameters: species or system chicken
# Source text: A further use of the antibiotic-protein complex is in redox titrations. Aqueous redox titrations of anthracyclines cannot be done. Although anthracycline glycosides are water soluble, loss of the glycoside (with its positive charge) provides the almost completely water insoluble 7-deoxyanthracyclinones. Unfortunately, glycoside loss is an integral aspect of anthracycline redox chemistry. The binding protein-anthracyclinecomplex has been used for anaerobic aqueous redox titrations. Dithionite reduction of the anthracycline glycoside provides, in a 2e^- process, the 7-deoxyanthracyclinone, via reductive elimination. The bound 7-deoxyanthracyclinone is then further 2e^- reduced to the bound hydroquinone. Semi-quinone radical intermediates are observed transiently; these are stable neither in solution nor complexed to the binding protein. Oxidation of the hydroquinone is accomplished by several reagents (oxygen, hydrogen peroxide, ferricyanide, cytochrome c). In the case of 7-deoxydaunomycinone hydroquinone, a mixture of two products is produced upon oxidation; these are the chromo 7-deoxydaunomycinone (identical to the first 2e^- reduction intermediate) and its leuco isomer, 8-acetyl-7,8,9,10-tetrahydro-5,8,12-trihydroxy-1-methoxy-6,11-napthacenedione(iso-7-deoxydaunomycinone).
# An anaerobic redox titration of the daunomycin-binding protein complex was done. […]
# [3] = Stability of free and binding protein-complexed compound (isomerization, light, storage); type: physicochemical
# Source text: Also of interest is the high affinity of the binding protein for iso-7-deoxydaunomycinone(8-acetyl-7,8,9,10-tetrahydro-5,8,12-trihydroxy-1- methoxy-6,11-napthacenedione). This compound is a kinetic product of 7-deoxydaunomycinone hydroquinone oxidation.
# An anaerobic redox titration of the daunomycin-binding protein complex was done. The reducing agent used was dithionite anion. Spectrophotometric titrations were made on a Cary 219 spectrophotometer. Anaerobic titrations were done with gas tight syringes, with the deoxygenated solutions maintained under a positive pressure of O2 -free nitrogen. Dithionite was freshly prepared in O2 -free buffer and standardized by anaerobic riboflavin titration. Equilibration with dithionite is in all instances complete in seconds. […] Assignment of structure to this titration intermediate was confirmed by its isolation, and chromatographic comparison with an authentic sample. Further dithionite addition reduces the bound 7-deoxydaunomycinone to a new chromophore (λmax =407 nm). The hydroquinone is not further reduced, but is very easily oxidized upon mixing with oxidants such as oxygen, hydrogen peroxide, ferricyanide and cytochrome c. The absorption spectrum obtained following complete oxygen oxidation of the hydroquinone is different than any previous spectrum. Longer wavelength features, indicating the presence of 7-deoxydaunomycinone, are seen but a new chromophore (λmax approximately 445 nm) is also present. The structure of the compound corresponding to this chromophore is iso-7-deoxydaunomycinone on the basis of its spectroscopic data. In neutral aqueous buffer in the absence of the binding protein this compound promptly isomerizes to 7-deoxydaunomycinone (k=6×10^-4 s^-1). […] Binding protein stabilization is also reflected in an estimated 10-fold slower rate of dithionite reduction of the iso-7-deoxydaunomycinone compared to either 7-deoxydaunomycinone or daunomycin.
# [4] = general procedure of Example 1, read-out: Kd (anthracycline glycosides, Examples 2-7)
# [5] = general procedure of Example 1, read-out: Kd (anthracyclinones, Examples 8-10)
# [6] = spectrophotometric, solutions prepared and admixed as previously described, read-out: Kd (anthraquinones and anthraquinone-like molecules, Examples 11-15)
smiles,measurement,setting,value
CC[C@@]1(O)C[C@H](O)c2c(cc3c(c2O)C(=O)c2c(O)cccc2C3=O)[C@H]1C(=O)OC (relative stereo) [(±)-Aklavinone],Kd,[1],0.02 µM
same,binding to the binding protein (in words),[1],"both enantiomers of the racemic aklavinone (7S, 9R, 10R, and 7R, 9S, 10S) are equally well bound"
CC(=O)[C@]1(O)Cc2c(O)c3c(c(O)c2[C@@H](O[C@H]2C[C@H](N)[C@H](O)[C@H](C)O2)C1)C(=O)c1ccccc1C3=O [4-Demethoxydaunomycin],binding to the binding protein (in words),[1],bind with an affinity hardly different than that of adriamycin
same,Kd,[1]; [4],0.3 µM
"CC(=O)[C@@]1(O)Cc2c(O)c3c(c(O)c2[C@H](O[C@H]2C[C@H](N)[C@H](O)[C@H](C)O2)C1)C(=O)c1ccccc1C3=O [7,9-Diepi-4-demethoxydaunomycin]",binding to the binding protein (in words),[1],binds most tightly of all
same,Kd,[1]; [4],0.08 µM
COc1cccc2c1C(=O)c1c(O)c3c(c(O)c1C2=O)C[C@@](O)(C(C)=O)CC3 [7-Deoxydaunomycinone],Kd,[1]; [5],0.08 µM
"CCCCC(=O)OCC(=O)[C@]1(O)Cc2c(O)c3c(c(O)c2[C@@H](O[C@H]2C[C@H](NC(=O)C(F)(F)F)[C@H](O)[C@H](C)O2)C1)C(=O)c1c(OC)cccc1C3=O [AD-32, N-trifluoroacetyl-14-valeryl-adriamycin]",binding to the binding protein (in words),[1],binds well; also recorded: tight binding
same,formation of AD-32-binding protein complex,"[1]; concentrated DMF solution added to slight molar excess of apo protein, approximately 20 μM each",quantitative formation of the AD-32-binding protein complex
CC[C@@]1(O)C[C@H](O[C@H]2C[C@H](N(C)C)[C@H](O[C@H]3C[C@H](O)[C@H](O[C@H]4CCC(=O)[C@H](C)O4)[C@H](C)O3)[C@H](C)O2)c2c(cc3c(c2O)C(=O)c2c(O)cccc2C3=O)[C@H]1C(=O)OC [Aclacinomycin A],Kd,[1],1 µM
same,binding to the binding protein (in words),[1],bind with an affinity hardly different than that of adriamycin
same,binding to the binding protein (in words),[1]; listed as aclacinomycin A,tight binding
COc1cccc2c1C(=O)c1c(O)c3c(c(O)c1C2=O)C[C@@](O)(C(=O)CO)C[C@@H]3O[C@H]1C[C@H](N)[C@H](O)[C@H](C)O1 [Adriamycin],Kd,[1],0.5 ± 0.1 µM
same,binding to the binding protein (in words),[1],good binding
Cc1c(C(=O)O)c(O)cc2c1C(=O)c1c(O)c([C@@H]3O[C@H](CO)[C@@H](O)[C@H](O)[C@H]3O)c(O)c(O)c1C2=O [Carminic acid],binding to the binding protein (in words),[1],neither tetracycline nor carminic acid (an insect feeding deterrent) bind
same,Kd,[1]; [6],> 250 µM
CN(C)CCCN1c2ccccc2Sc2ccc(Cl)cc21 [Chlorpromazine],binding to the binding protein (in words),[1],high affinity
same,Kd,[1]; [6],~1 µM
"O=C1c2c(O)ccc(O)c2C(=O)c2c(NCCNCCO)ccc(NCCNCCO)c21 [DHAQ, 1,4-dihydroxy-5,8-bis[[2-(hydroxyethyl)amino]ethyl]-9. 10-anthracenedione]",binding to the binding protein (in words),[1],bound weakly
same,Kd,[1]; [6],60 µM
COc1cccc2c1C(=O)c1c(O)c3c(c(O)c1C2=O)C[C@@](O)(C(C)=O)C[C@@H]3O[C@H]1C[C@H](N)[C@H](O)[C@H](C)O1 [Daunomycin],Kd,[1],0.4 µM
same,binding to the binding protein (in words),[1],bind with an affinity hardly different than that of adriamycin
same,redox behaviour in titration (in words),"[2]; anaerobic, dithionite, oxidation by oxygen, hydrogen peroxide, ferricyanide, cytochrome c","first converted in a 2e^- process to 7-deoxydaunomycinone, with reductive elimination of the glycoside"
"COc1cccc2c(O)c3c(c(O)c12)C(=O)C1=C(C[C@@](O)(C(C)=O)CC1)C3=O [Iso-7-deoxydaunomycinone, 8-acetyl-7,8,9,10-tetrahydro-5,8,12-trihydroxy-1-methoxy-6,11-napthacenedione]",binding to the binding protein (in words),[1],high affinity; also recorded: preferentially bound by the riboflavin binding protein
same,Kd,[1]; [5],0.02 µM
same,slower rate of dithionite reduction compared to either 7-deoxydaunomycinone or daunomycin,"[2]; binding protein stabilization, estimated",~10 fold
same,stability (in words),[3]; complexed to the binding protein,stable in organic solvents and when complexed to the binding protein; also recorded: stable for days
same,stability (in words),"[3]; free compound, aqueous buffer or organic solvents",not stable in aqueous buffer to isomerization to 7-deoxydaunomycinone; also recorded: stable in organic solvents
same,rate constant k of isomerization to 7-deoxydaunomycinone,"[3]; neutral aqueous buffer, absence of the binding protein",0.0006 s⁻¹
COC(=O)[C@@H]1c2cc3c(c(O)c2[C@@H](O[C@@H]2O[C@@H](C)[C@H](OC)[C@@](C)(OC)[C@H]2OC)C[C@]1(C)O)C(=O)c1c(O)cc2c(c1C3=O)O[C@@H]1O[C@@]2(C)[C@H](O)[C@@H](N(C)C)[C@@H]1O [Nogalomycin],binding to the binding protein (in words),[1],All save nogalomycin bind
same,Kd,[1]; [4],> 1000 µM
CCN(CC)CCCC(C)Nc1c2ccc(Cl)cc2nc2ccc(OC)cc12 (centres unmarked) [Quinacrine],binding to the binding protein (in words),[1],high affinity
CN(C)[C@@H]1C(=O)C(C(N)=O)=C(O)[C@@]2(O)C(=O)C3=C(O)c4c(O)cccc4[C@@](C)(O)[C@H]3C[C@@H]12 [Tetracycline],Kd,[1],> 250 µM
same,binding to the binding protein (in words),[1],neither tetracycline nor carminic acid (an insect feeding deterrent) bind
Cc1cc2nc3c(=O)[nH]c(=O)nc-3n(C[C@H](O)[C@H](O)[C@H](O)CO)c2cc1C [riboflavin],binding to the binding protein (in words),[1],no compound is more tightly bound by the egg binding protein than riboflavin
